Patent US20070060632A1, “Lofexidine” (TEXCONTOR ETABLISSEMENT, priority 2005, published 2007)
Several values for one entry are separate records, joined by “and”; a condition that tells them apart may be missing. Identical values can stand only once. Counter-ions that a name gives are not always drawn.

What was measured:
[1] = test system: rat model of post-operative pain; experiment: Rat model of post-operative pain (hind paw incision), tactile allodynia by Electronic Von Frey; format: in vivo; conditions: for Tactile Pressure Post-treatment, Average per rat: average of 4 points of one rat; for % Inhibition: Δ Treatment/Δ Blank × 100% / Δ Treatment: Tactile Pressure [(Post-Treatment) − (Pre-Treatment)]: group; for % Inh per rat: individual rat; for Tactile Pressure Post-Treatment: single points (4 per rat), 24 hours after surgery
Description: Lofexidine at 0.00032 and 0.0032 mg/rat injected intrathecally (ITH) was evaluated for possible analgesic activity in a rat model of post-operative pain which was induced with an incision made on the plantar surface of the hind paw. To measure tactile allodynia, a supertip with a flattened surface connected to Electrovonfrey Aesthethiometer (IITC, USA) was applied slowly and gently onto the plantar surface of the hind paw, where 4 points around the incision were identified. The endpoint is the mean withdrawal threshold values (gm) in response to von Frey filament, serving as a measure of analgesic activity. Percent inhibition was calculated as Δ treatment values (change in threshold pressure caused by treatment) relative to Δ blank values (change in threshold value caused by incision). Lofexidine.HCl was dissolved in 0.9% NaCl and at doses of 0.00032 and 0.0032 mg/rat was administered intrathecally (ITH). The dosing volume was 10 μl/rat. Male Wistar derived rats weighing 270±30 g provided by BioLasco Taiwan (under Charles River Laboratories Technology licensee) were used. Space allocation for animals was 45×23×15 cm for 6 rats. Animals were housed in APEC^R cages. All animals were maintained in a controlled temperature (22-24° C.) and humidity (60%-80%) environment with 12 hours light dark cycles for at least one week in MDS Pharma Services-Taiwan Laboratory prior to use. Free access to standard lab chow (Lab Diet, Rodent Diet, PMI Nutrition International, USA) and tap water was granted. All aspects of this work including housing, experimentation and disposal of animals were performed in general accordance with the Guide for the Care and Use of Laboratory Animals (National Academy Press, Washington, D. C, 1996). Groups of 5 male Wistar rats weighing 270±30 g were used. Prior to surgery, individual animals were acclimatised to the testing environment and baseline responses to Electronic Von Frey Aesthesiometer (2290CE Electrovonfrey®, IITC, USA) with a rigid tip were performed (Pre-Incision). Under pentobarbital (50 mg/kg, 5 ml/kg, i.p.) anesthesia, the left hind paw was aseptically prepared. A 1-cm longitudinal incision was made with a number 11 blade, through the skin and fascia of the plantar aspect of the foot, starting 0.5 cm from the proximal edge of the heel and extending toward the toes. The plantaris muscle was elevated and incised longitudinally, followed by crushing with a mosquito hemostat for 20 seconds. The muscle origin and insertion remained intact After hemostasis with gentle pressure, the skin and fascia were then closed as one layer using 4-0 silk suture. Evaluation for pain was performed at 24 hours postoperatively between 08:00 and 16:00 h. Each animal was monitored at 15, 30, 60 and 120 minutes after intrathecal administration of lofexidine.HCl. The rats were placed under inverted plexiglas cages on a wire mesh rack and a brief observation of general behavior post-injection was made. The rigid tip part of the Electronic Von Frey Aesthesiometer was applied perpendicularly from underneath the mesh floor to the four points around the wound surface of the animal with slow upward force against the paw. A positive response to tactile pressure was recorded if the paw was sharply withdrawn; ambulation was considered an ambiguous response, and in such cases, the stimulus was reapplied. Mean values from 4 points for each rat and from 5 rats in each group were calculated. Percent inhibition due to treatment relative to pre-treatment pain response was calculated according to the formula: Tactile Pressure [(Post-Treatment)−(Pre-Treatment)]/[(Pre-Incision)−(Pre-Treatment)]×100%. Inhibition by 50% or more (≧50%) is considered significant analgesic effect. Unpaired Student's t test is applied for comparison of the % inhibition values between test substance-and vehicle-treated groups. Significance is considered at P<0.05 level

[2] = test system: nerve ligation-induced chronic pain model in rats; experiment: Nerve ligation-induced chronic (neuropathic) pain model in rats, mechanical allodynia by Electronic Von Frey; format: in vivo, rat; conditions: for Tactile Pressure Post-Treatment, Average / Tactile Pressure Δ Treatment, Average: average of 5 rats; for Tactile Pressure Post-Treatment / Tactile Pressure Δ Treatment: individual rat
Description: Lofexidine was evaluated for possible analgesic activity in neuropathic pain using a nerve ligation-induced chronic pain model in rats. Lofexidine HCl was administered intrathecally (ITH) at 3.2 and 10 μg/animal and analgesia was measured at 15, 30, 60 and 120 minutes post-dosing using an Electronic Von Frey Aesthesiometer (IITC, USA) with a #12 supertip. A 50% or greater (≧50%) inhibition relative to blank indicates possible analgesic activity. Lofexidine HCl at doses of 3.2 and 10 μg/animal were administered intrathecally. Sterile Saline (obtained from Sintong Biotech Company, Taiwan) was used as vehicle and dosing volume was 10 μl/animal. Male Wistar rats weighing 160 to 200 g were used. Under pentobarbital (50 mg/kg, 5 ml/kg, i.p.) anesthesia, the sciatic nerve was exposed at mid-thigh level. Three ligatures (4-0 silk suture), about 1 mm apart, were loosely tied around the nerve. The animals were then housed individually in cages with soft bedding for 7 days before testing for mechanical allodynia. On the test day, rats were placed under inverted plexiglas cages on a wire mesh rack and allowed to acclimatise for 20 to 30 minutes. Allodynia was evaluated by responsiveness to a #12 Supertip® (IITC, USA) applied beneath the mesh floor perpendicular to the central plantar surface of the left hind paw. The tip was gradually applied with sufficient force to cause slight buckling of the filament against the paw. A positive response to the applied tactile pressure, noted by sharp withdrawal of the paw, was recorded automatically by an Electronic Von Frey Aesthesiometer (2290CE Electrovonfrey®, IITC, USA). The endpoint is the withdrawal threshold (gm) to von Frey filament, serving as a measure of analgesic activity. Rats were pre-selected (for presence of allodynia) for experimentation only if the withdrawal threshold 7 days after nerve ligation (pre-treatment) was reduced by 10 grams of force relative to the response of the individual paw before nerve ligation (pre-ligation). Test substance or vehicle was administered intrathecally (3.2 μg and 10 μg/animal) to groups of 5 animals and the level of allodynia was again determined (at 15, 30, 60 and 120 minutes post-treatment). Allodynia is calculated as follows: % Inhibition=ΔTreatment/ΔBlank×100%; where Δ Treatment is Tactile Pressure [(Post-Treatment)−(Pre-Treatment)] and Δ Blank is Tactile Pressure [(Pre-Ligation)−(Pre-Treatment)]. A 50 percent or greater (≧50%) inhibition relative to blank indicates possible analgesic activity.

[3] = test system: chronic pelvic pain; conditions: given orally, dosages of up to 1200 μg per day; cited from earlier work
[4] = systemically (orally or by intravenous injection), especially at high doses (>600 μg per day); cited from earlier work

CC(Oc1c(Cl)cccc1Cl)C1=NCCN1 (centres unmarked) [Lofexidine HCl]
Tactile Pressure Post-treatment, Average per rat ([1]; 0.00032 mg/rat ITH, 15 min.): 18.0 g
% Inhibition: Δ Treatment/Δ Blank × 100% ([1]; 0.00032 mg/rat ITH, 15 min.): 2.6%
Δ Treatment: Tactile Pressure [(Post-Treatment) − (Pre-Treatment)] ([1]; 0.00032 mg/rat ITH, 15 min.): 0.8 g
% Inh per rat ([1]; 0.00032 mg/rat ITH, 15 min.): −7.4% and 2.5% and −5.6% and 8.0%
% Inhibition: Δ Treatment/Δ Blank × 100% ([1]; 0.00032 mg/rat ITH, 30 min.): 7.6%
Δ Treatment: Tactile Pressure [(Post-Treatment) − (Pre-Treatment)] ([1]; 0.00032 mg/rat ITH, 30 min.): 2.3 g
% Inh per rat ([1]; 0.00032 mg/rat ITH, 30 min.): −3.2% and 4.1%
Tactile Pressure Post-Treatment ([1]; 0.00032 mg/rat ITH, 30 min.): 26.0 g and 20.0 g
Tactile Pressure Post-treatment, Average per rat ([1]; 0.00032 mg/rat ITH, 60 min.): 22.0 g
% Inhibition: Δ Treatment/Δ Blank × 100% ([1]; 0.00032 mg/rat ITH, 60 min.): 4.3%
Δ Treatment: Tactile Pressure [(Post-Treatment) − (Pre-Treatment)] ([1]; 0.00032 mg/rat ITH, 60 min.): 1.3 g
% Inh per rat ([1]; 0.00032 mg/rat ITH, 60 min.): −0.7% and 3.0% and 0.8% and 7.4%
Tactile Pressure Post-Treatment ([1]; 0.00032 mg/rat ITH, 60 min.): 22.0 g
% Inhibition: Δ Treatment/Δ Blank × 100% ([1]; 0.00032 mg/rat ITH, 120 min.): 0.3%
Δ Treatment: Tactile Pressure [(Post-Treatment) − (Pre-Treatment)] ([1]; 0.00032 mg/rat ITH, 120 min.): 0.1 g
% Inh per rat ([1]; 0.00032 mg/rat ITH, 120 min.): −2.5% and −7.4% and 2.5% and 4.1% and 4.7%
Tactile Pressure Post-Treatment ([1]; 0.00032 mg/rat ITH, 120 min.): 21.0 g (2×) and 22.0 g and 18.0 g
Tactile Pressure Post-treatment, Average per rat ([1]; 0.0032 mg/rat ITH, 15 min.): 46.0 g
Tactile Pressure Post-Treatment ([1]; 0.0032 mg/rat ITH, 15 min.): 43.0 g and 60.0 g
% Inh per rat ([1]; 0.0032 mg/rat ITH, 30 min.): 47.0%
Tactile Pressure Post-Treatment ([1]; 0.0032 mg/rat ITH, 30 min.): 44.0 g
Δ Treatment: Tactile Pressure [(Post-Treatment) − (Pre-Treatment)] ([1]; 0.0032 mg/rat ITH, 60 min.): 8.9 g
% Inh per rat ([1]; 0.0032 mg/rat ITH, 60 min.): −3.5% and 0.9%
Tactile Pressure Post-Treatment ([1]; 0.0032 mg/rat ITH, 60 min.): 29.0 g
Tactile Pressure Post-treatment, Average per rat ([1]; 0.0032 mg/rat ITH, 120 min.): 22.0 g
% Inhibition: Δ Treatment/Δ Blank × 100% ([1]; 0.0032 mg/rat ITH, 120 min.): 5.5%
Δ Treatment: Tactile Pressure [(Post-Treatment) − (Pre-Treatment)] ([1]; 0.0032 mg/rat ITH, 120 min.): 1.8 g
% Inh per rat ([1]; 0.0032 mg/rat ITH, 120 min.): 1.2% and 5.8% and −2.5% and −8.2%
Tactile Pressure Post-Treatment, Average ([2]; 3.2 μg/animal ITH, 15 Minutes): 12.5 g
Tactile Pressure Δ Treatment, Average ([2]; 3.2 μg/animal ITH, 15 Minutes): 1.3 g
Tactile Pressure Post-Treatment ([2]; 3.2 μg/animal ITH, 15 Minutes): 8.9 g and 5.8 g
Tactile Pressure Δ Treatment ([2]; 3.2 μg/animal ITH, 15 Minutes): -1.8 g and -5.2 g and 8.5 g and 6.3 g and -1.1 g
Tactile Pressure Δ Treatment, Average ([2]; 3.2 μg/animal ITH, 30 Minutes): -1.1 g
Tactile Pressure Post-Treatment ([2]; 3.2 μg/animal ITH, 30 Minutes): 7.4 g and 8.5 g and 10.0 g
Tactile Pressure Δ Treatment ([2]; 3.2 μg/animal ITH, 30 Minutes): -0.5 g and -3.8 g and -0.6 g and 1.4 g and -2.0 g
Tactile Pressure Post-Treatment, Average ([2]; 3.2 μg/animal ITH, 60 Minutes): 9.3 g
Tactile Pressure Δ Treatment, Average ([2]; 3.2 μg/animal ITH, 60 Minutes): -1.8 g
Tactile Pressure Post-Treatment ([2]; 3.2 μg/animal ITH, 60 Minutes): 8.7 g and 7.5 g and 6.5 g
Tactile Pressure Δ Treatment ([2]; 3.2 μg/animal ITH, 60 Minutes): -2.0 g and -3.7 g and -2.1 g and 4.2 g and -5.5 g
Tactile Pressure Post-Treatment, Average ([2]; 3.2 μg/animal ITH, 120 Minutes): 9.2 g
Tactile Pressure Δ Treatment, Average ([2]; 3.2 μg/animal ITH, 120 Minutes): -2.0 g
Tactile Pressure Post-Treatment ([2]; 3.2 μg/animal ITH, 120 Minutes): 8.6 g and 6.1 g and 7.9 g
Tactile Pressure Δ Treatment ([2]; 3.2 μg/animal ITH, 120 Minutes): -2.1 g and -5.1 g and -2.4 g and 0.8 g and -1.2 g
Tactile Pressure Δ Treatment, Average ([2]; 10 μg/animal ITH, 15 Minutes): 13.0 g
Tactile Pressure Post-Treatment ([2]; 10 μg/animal ITH, 15 Minutes): >36.8 g
Tactile Pressure Δ Treatment ([2]; 10 μg/animal ITH, 15 Minutes): 1.5 g and 11.0 g
Tactile Pressure Post-Treatment ([2]; 10 μg/animal ITH, 30 Minutes): 7.0 g and >31.5 g and >35.5 g
Tactile Pressure Δ Treatment ([2]; 10 μg/animal ITH, 30 Minutes): -3.9 g and 4.3 g
Tactile Pressure Post-Treatment ([2]; 10 μg/animal ITH, 60 Minutes): 8.9 g
Tactile Pressure Δ Treatment ([2]; 10 μg/animal ITH, 60 Minutes): 8.4 g and 4.2 g and -2.4 g
Tactile Pressure Post-Treatment, Average ([2]; 10 μg/animal ITH, 120 Minutes): 11.0 g
Tactile Pressure Δ Treatment, Average ([2]; 10 μg/animal ITH, 120 Minutes): 0.6 g
Tactile Pressure Post-Treatment ([2]; 10 μg/animal ITH, 120 Minutes): 6.4 g
Tactile Pressure Δ Treatment ([2]; 10 μg/animal ITH, 120 Minutes): 1.4 g and -0.1 g and 5.2 g and 1.3 g and -4.9 g
time of peak analgesic activity post-dosing ([2]; 10 μg/animal intrathecal): 30 min
analgesic activity at 120 minutes post-dosing ([2]; 10 μg/animal intrathecal, 120 minutes post-dosing): no longer evident
effectiveness in treatment of chronic pelvic pain [3]: not effective
common symptoms associated with systemic use [4]: drowsiness, sedation and blood pressure and heart rate increases

CC(Oc1c(Cl)cccc1Cl)C1=NCCN1 (centres unmarked) [Lofexidine]
analgesic effect against post-operative pain ([1]; 0.00032 mg/rat ITH): slight analgesic effect
analgesic effect against post-operative pain ([1]; 0.0032 mg/rat intrathecal, 15 and 30 minute time points, compared with Δ blank values): demonstrated analgesic effect
analgesic activity, neuropathic pain ([2]; 3.2 μg/animal intrathecal): low levels of analgesic activity
analgesic activity, neuropathic pain ([2]; 10 μg/animal intrathecal, 30 minutes post-injection): significant analgesic activity
